What was measured:
CYP3A4 = experiment: Human CYP 3A4 induction assay (mRNA, cryopreserved human hepatocytes); assay type: in vitro ADME; details: 72 hours, percent of control (POC); for CYP3A4 mRNA Induct Hu 2 uM POC: 2 uM test compound; for CYP3A4 mRNA Induct Hu 10 uM POC: 10 uM test compound
Method: Human CYP 3A4 Induction Assay
Cryopreserved human hepatocytes were seeded in 96-well collagen coated plates at 70,000 cells per well in hepatocyte plating media (HPM, final concentrations: lx Dulbecco's Modified Eagle's Medium, 0.1 μM dexamethasone, 10% fetal bovine serum, lx ITS, 1×PSG) followed by incubation at 37° C. under 5% CO2 and 90% relative humidity for 2 days to allow hepatocytes to form a confluent layer. On Day 3, hepatocytes were treated with either test compound or rifampin (20 μM, positive control for CYP3A induction) prepared in hepatocyte incubation media ((HIM, final concentrations: 1× William's Medium E, 0.1 μM dexamethasone, 1×ITS, 1×PSG). Treatment was performed for 72 hours with either 2 concentrations (2 μM or 10 μM) or a range of concentrations (0.001 μM to 100 μM) of the test compound to obtain full dose-response curve. Fresh media containing the relevant concentrations of the test compound was replaced every day until the samples were processed. After 72 hours of incubation, samples were processed for mRNA analysis using bDNA technology using manufacturer's instructions (Affymetrix, Fremont, Calif.). Cell viability was tested at the end of the experiment using MTT assay kit (Roche Diagnostics, Basel, Switzerland). Data was analyzed and presented as percent of control (POC) and Emax and EC50 obtained when appropriate according to guidance from Center for Drug Evaluation and Research (CDER), 2006, Guidance for Industry, Drug Interaction Studies—Study Design, Data Analysis, and Implications for Dosing and Labeling.
Cryopreserved human hepatocytes were seeded in 96-well collagen coated plates at 70,000 cells per well in hepatocyte plating media (HPM, final concentrations: lx Dulbecco's Modified Eagle's Medium, 0.1 μM dexamethasone, 10% fetal bovine serum, lx ITS, 1×PSG) followed by incubation at 37° C. under 5% CO2 and 90% relative humidity for 2 days to allow hepatocytes to form a confluent layer. On Day 3, hepatocytes were treated with either test compound or rifampin (20 μM, positive control for CYP3A induction) prepared in hepatocyte incubation media ((HIM, final concentrations: 1× William's Medium E, 0.1 μM dexamethasone, 1×ITS, 1×PSG). Treatment was performed for 72 hours with either 2 concentrations (2 μM or 10 μM) or a range of concentrations (0.001 μM to 100 μM) of the test compound to obtain full dose-response curve. Fresh media containing the relevant concentrations of the test compound was replaced every day until the samples were processed. After 72 hours of incubation, samples were processed for mRNA analysis using bDNA technology using manufacturer's instructions (Affymetrix, Fremont, Calif.). Cell viability was tested at the end of the experiment using MTT assay kit (Roche Diagnostics, Basel, Switzerland). Data was analyzed and presented as percent of control (POC) and Emax and EC50 obtained when appropriate, as described in Halladay, J. et al, 2012, An “all-inclusive” 96-well cytochrome P450 induction method: Measuring enzyme activity, mRNA levels, protein levels, and cytotoxicity from one well using cryopreserved human hepatocytes, Pharmacological and Toxicological Methods, 66:270-275.

Human Nav1.7 = target: T1, Human Nav1.7 (Homo sapiens, UniProt Q15858); experiment: Ionworks Barracuda (IWB) automated patch clamp assay; assay type: cell-based; details: population patch clamp, HEK cells, 4 min compound incubation at -20 mV; read-out: hNaV1.7 IWB-U IC50
T1 construct: expressed in transfected cells; host or cells: Spiking HEK cells (without Kir2.1 transfection)
Method: Ionworks Barracuda Automated Patch Clamp Assay (Same Protocol for Both Human and Mouse)
Human Nav1.7 currents were recorded in population patch-clamp mode with the IWB automated electrophysiology system (Molecular Devices, LLC, Sunnyvale, Calif.). Spiking HEK cells (without Kir2.1 transfection) were cultured and prepared for recordings as previously described for IonWorks Quattro testing^1. The external solution consisted of the following (in mM): NaCl 140, KCl 5, CaCl2 2, MgCl2 1, HEPES 10, and glucose 11, pH 7.4, with N-methyl-D-glucamine at 320 mOsmol. The internal solution consisted of the following (in mM): KCl 70, KF 70, MgCl2 0.25, HEDTA 5, and HEPES 10, pH 7.25, with Nmethyl-D-glucamine, 300 mOsmol. From a holding potential of −110 mV, currents were elicited by a train of 26 depolarizations of 150 ms duration to −20 mV at a frequency of 5 Hz. Cells were then clamped to −20 mV for a period of 4 minutes in the presence of a single concentration of test compound. Following this compound incubation period, cells were clamped to −110 mV for three seconds to recover unbound channels and put through the same 26 pulse voltage protocol as above. Peak inward current during the 26th pulse to −20 mV in the presence of compound was divided by the peak inward current evoked by the 26th pulse to −20 mV in the absence of compound to determine percent inhibition. Concentration-response curves of percent inhibition as a function of concentration were generated to calculate IC50 values as described in Kornecook, T. J.; Yin, R.; Altmann, S.; et al. Pharmacologic Characterization of AMG8379, a Potent and Selective Small Molecule Sulfonamide Antagonist of the Voltage-Gated Sodium Channel NaV1. 7. J. Pharmacol. Exp. Ther. 2017, 362, 146-160.

T1 sequence (Q15858 whole entry): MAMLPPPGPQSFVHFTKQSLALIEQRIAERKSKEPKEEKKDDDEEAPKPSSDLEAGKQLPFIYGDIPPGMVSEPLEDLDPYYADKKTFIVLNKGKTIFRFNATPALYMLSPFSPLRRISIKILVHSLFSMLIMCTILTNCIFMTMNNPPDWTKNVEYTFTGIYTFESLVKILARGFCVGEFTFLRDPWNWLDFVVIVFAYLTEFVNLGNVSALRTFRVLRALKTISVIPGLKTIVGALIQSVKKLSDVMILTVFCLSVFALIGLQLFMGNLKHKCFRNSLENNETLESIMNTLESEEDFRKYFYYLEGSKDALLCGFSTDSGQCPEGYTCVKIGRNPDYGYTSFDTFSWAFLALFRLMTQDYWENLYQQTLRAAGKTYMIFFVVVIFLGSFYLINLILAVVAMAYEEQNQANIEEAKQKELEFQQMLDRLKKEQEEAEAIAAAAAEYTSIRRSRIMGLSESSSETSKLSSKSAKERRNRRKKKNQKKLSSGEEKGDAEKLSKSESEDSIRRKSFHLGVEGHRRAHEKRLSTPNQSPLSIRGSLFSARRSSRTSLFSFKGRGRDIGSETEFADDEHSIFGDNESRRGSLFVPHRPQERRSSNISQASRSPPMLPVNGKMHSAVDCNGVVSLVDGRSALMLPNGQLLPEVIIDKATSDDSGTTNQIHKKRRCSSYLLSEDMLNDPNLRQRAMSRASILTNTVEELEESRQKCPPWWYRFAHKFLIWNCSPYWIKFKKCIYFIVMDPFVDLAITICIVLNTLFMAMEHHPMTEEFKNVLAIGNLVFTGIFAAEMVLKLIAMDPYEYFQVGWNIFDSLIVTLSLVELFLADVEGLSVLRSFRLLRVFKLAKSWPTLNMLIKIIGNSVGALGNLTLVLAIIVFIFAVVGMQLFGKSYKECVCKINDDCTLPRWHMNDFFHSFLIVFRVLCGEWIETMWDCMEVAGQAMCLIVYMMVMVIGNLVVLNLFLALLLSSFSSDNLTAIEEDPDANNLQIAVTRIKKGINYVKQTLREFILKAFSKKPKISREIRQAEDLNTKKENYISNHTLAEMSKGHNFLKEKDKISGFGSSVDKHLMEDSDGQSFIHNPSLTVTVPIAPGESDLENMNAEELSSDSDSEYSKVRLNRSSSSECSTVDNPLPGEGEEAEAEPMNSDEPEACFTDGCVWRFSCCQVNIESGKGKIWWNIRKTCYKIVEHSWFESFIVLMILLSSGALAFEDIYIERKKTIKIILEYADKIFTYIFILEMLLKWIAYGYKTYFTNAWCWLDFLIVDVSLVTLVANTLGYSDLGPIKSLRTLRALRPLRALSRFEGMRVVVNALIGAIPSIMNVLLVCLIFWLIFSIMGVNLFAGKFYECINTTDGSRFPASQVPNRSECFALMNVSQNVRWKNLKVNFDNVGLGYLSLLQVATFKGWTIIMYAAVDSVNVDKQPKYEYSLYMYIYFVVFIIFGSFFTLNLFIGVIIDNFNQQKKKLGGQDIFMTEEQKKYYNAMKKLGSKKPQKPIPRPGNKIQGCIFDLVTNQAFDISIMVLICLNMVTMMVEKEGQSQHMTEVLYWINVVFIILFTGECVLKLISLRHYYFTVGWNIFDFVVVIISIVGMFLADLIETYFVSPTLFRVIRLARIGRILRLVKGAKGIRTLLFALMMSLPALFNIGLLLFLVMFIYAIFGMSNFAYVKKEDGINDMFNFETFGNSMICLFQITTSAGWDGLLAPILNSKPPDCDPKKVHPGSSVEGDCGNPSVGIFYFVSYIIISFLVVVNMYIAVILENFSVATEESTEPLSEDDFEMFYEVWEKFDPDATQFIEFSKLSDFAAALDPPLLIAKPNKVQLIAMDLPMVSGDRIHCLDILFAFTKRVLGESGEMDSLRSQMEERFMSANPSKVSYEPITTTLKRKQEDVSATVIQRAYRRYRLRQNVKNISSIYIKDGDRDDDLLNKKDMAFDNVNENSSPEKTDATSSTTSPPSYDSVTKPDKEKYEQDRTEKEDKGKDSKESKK

SMILES | CYP3A4 mRNA Induct Hu 2 uM POC (CYP3A4) | CYP3A4 mRNA Induct Hu 10 uM POC (CYP3A4) | IC50 (Human Nav1.7)
COc1cc(CCC(F)(F)F)c(F)cc1-n1c(=O)ccc2cc(S(=O)(=O)Nc3ccon3)ccc21 (atropisomer, axis not shown; (P)) [Compound A, (P)-1-(5-fluoro-2-methoxy-4-(3,3,3-trifluoropropyl)phenyl)-N-(1,2-oxazol-3-yl)-2-oxo-1,2-dihydro-6-quinolinesulfonamide, reference compound] | 41.9% | 76.1% | 14 nM
COc1cc(COC(F)(F)F)c(Cl)cc1-n1c(=O)ccc2cc(S(=O)(=O)Nc3ccon3)ccc21 (atropisomer, axis not shown; (P)) [Example 1, (P)-1-(5-chloro-2-methoxy-4-((trifluoromethoxy)methyl)phenyl)-N-(isoxazol-3-yl)-2-oxo-1,2-dihydroquinoline-6-sulfonamide] | 1.7% |  | 7 nM
COc1cc(SC(F)(F)F)c(Cl)cc1-n1c(=O)ccc2cc(S(=O)(=O)Nc3ccon3)ccc21 (atropisomer, axis not shown; (P)) [Example 2, (P)-1-(5-chloro-2-methoxy-4-((trifluoromethyl)thio)phenyl)-N-(isoxazol-3-yl)-2-oxo-1,2-dihydroquinoline-6-sulfonamide] |  |  | 8 nM
COc1cc(OC(F)(F)F)c(Cl)cc1-n1c(=O)ccc2cc(S(=O)(=O)Nc3ccon3)ccc21 (atropisomer, axis not shown; (P)) [Example 3, (P)-1-(5-chloro-2-methoxy-4-(trifluoromethoxy)phenyl)-N-(isoxazol-3-yl)-2-oxo-1,2-dihydroquinoline-6-sulfonamide] | 10.1% | 35.4% | 9 nM
COc1cc(COC(F)(F)F)c(F)cc1-n1c(=O)ccc2cc(S(=O)(=O)Nc3ccon3)ccc21 (atropisomer, axis not shown; (P)) [Example 4, (P)-1-(5-fluoro-2-methoxy-4-((trifluoromethoxy)methyl)phenyl)-N-(isoxazol-3-yl)-2-oxo-1,2-dihydroquinoline-6-sulfonamide] | 0.2% | 0.2% | 11 nM
COc1cc(SCC(F)(F)F)c(F)cc1-n1c(=O)ccc2cc(S(=O)(=O)Nc3ccon3)ccc21 (atropisomer, axis not shown; (P)) [Example 5, (P)-1-(5-fluoro-2-methoxy-4-((2,2,2-trifluoroethyl)thio)phenyl)-N-(isoxazol-3-yl)-2-oxo-1,2-dihydroquinoline-6-sulfonamide] | 3.4% | 7.5% | 11 nM
COc1cc(COC(F)(F)F)c(F)cc1-n1c(=O)ccc2cc(S(=O)(=O)Nc3ccon3)c(F)cc21 (atropisomer, axis not shown; (P)) [Example 6, (P)-7-fluoro-1-(5-fluoro-2-methoxy-4-((trifluoromethoxy)methyl)phenyl)-N-(isoxazol-3-yl)-2-oxo-1,2-dihydroquinoline-6-sulfonamide] | 18.3% | 30.1% | 11 nM
COc1cc(SC(F)(F)F)c(F)cc1-n1c(=O)ccc2cc(S(=O)(=O)Nc3ccon3)c(F)cc21 (atropisomer, axis not shown; (P)) [Example 7, (P)-7-fluoro-1-(5-fluoro-2-methoxy-4-((trifluoromethyl)thio)phenyl)-N-(isoxazol-3-yl)-2-oxo-1,2-dihydroquinoline-6-sulfonamide] | 20.9% | 54.2% | 11 nM
COc1cc(SC(F)(F)F)c(F)cc1-n1c(=O)ccc2cc(S(=O)(=O)Nc3ccon3)ccc21 (atropisomer, axis not shown; (P)) [Example 8, (P)-1-(5-fluoro-2-methoxy-4-((trifluoromethyl)thio)phenyl)-N-(isoxazol-3-yl)-2-oxo-1,2-dihydroquinoline-6-sulfonamide] | 6.1% | 24.5% | 15 nM
COc1cc(OC(F)(F)F)c(F)cc1-n1c(=O)ccc2cc(S(=O)(=O)Nc3ccon3)ccc21 (atropisomer, axis not shown; (P)) [Example 9, (P)-1-(5-fluoro-2-methoxy-4-(trifluoromethoxy)phenyl)-N-(isoxazol-3-yl)-2-oxo-1,2-dihydroquinoline-6-sulfonamide] | 7.8% | 22.2% | 21 nM
COc1cc(OCC(F)(F)F)c(F)cc1-n1c(=O)ccc2cc(S(=O)(=O)Nc3ccon3)ccc21 (atropisomer, axis not shown; (P)) [Example 10, (P)-1-(5-fluoro-2-methoxy-4-(2,2,2-trifluoroethoxy)phenyl)-N-(isoxazol-3-yl)-2-oxo-1,2-dihydroquinoline-6-sulfonamide] | 10.8% | 35.7% | 21 nM
COc1cc(OCC(F)(F)F)c(Cl)cc1-n1c(=O)ccc2cc(S(=O)(=O)Nc3ccon3)ccc21 (atropisomer, axis not shown; (P)) [Example 15, (P)-1-(5-chloro-2-methoxy-4-(2,2,2-trifluoroethoxy)phenyl)-N-(isoxazol-3-yl)-2-oxo-1,2-dihydroquinoline-6-sulfonamide] | 7.7% | 20.2% | 23 nM
COc1cc(O[C@H](C)C(F)(F)F)c(F)cc1-n1c(=O)ccc2cc(S(=O)(=O)Nc3ccon3)c(F)cc21 (atropisomer, axis not shown; (P)) [Example 16, (P)-(R)-7-fluoro-1-(5-fluoro-2-methoxy-4-((1,1,1-trifluoropropan-2-yl)oxy)phenyl)-N-(isoxazol-3-yl)-2-oxo-1,2-dihydroquinoline-6-sulfonamide] | 3.9% | 7.2% | 24 nM
COc1cc(O[C@@H](C)C(F)(F)F)c(F)cc1-n1c(=O)ccc2cc(S(=O)(=O)Nc3ccon3)c(F)cc21 (atropisomer, axis not shown; (P)) [Example 17, (P)-(S)-7-fluoro-1-(5-fluoro-2-methoxy-4-((1,1,1-trifluoropropan-2-yl)oxy)phenyl)-N-(isoxazol-3-yl)-2-oxo-1,2-dihydroquinoline-6-sulfonamide] | 16.3% | 39.8% | 27 nM
